Results reported in ChEMBL document CHEMBL1255447, “Efflux pumps, OprD porin, AmpC beta-lactamase, and multiresistance in Pseudomonas aeruginosa isolates from cystic fibrosis patients” (2010).
Converted amounts (≈) assume the structure as drawn.

These compounds were tested on Pseudomonas aeruginosa (assay: Antimicrobial activity against Pseudomonas aeruginosa isolate 1681c from fibrosis patient by Etest). Details: not given.
Assay type: functional

Q: With `C[C@@H](O)[C@H]1C(=O)N2C(C(=O)O)=C(S[C@@H]3CN[C@H](C(=O)N(C)C)C3)[C@H](C)[C@H]12` [MEROPENEM] as the compound, how does the MIC read?
A: 8 µg/mL (≈ 20.9 µM)

Each compound was assayed on Pseudomonas aeruginosa (assay: Antimicrobial activity against Pseudomonas aeruginosa isolate 1665 from fibrosis patient by Etest). Details: not given.
Assay type: functional

Q: With `C[C@@H](O)[C@H]1C(=O)N2C(C(=O)O)=C(S[C@@H]3CN[C@H](C(=O)N(C)C)C3)[C@H](C)[C@H]12` [MEROPENEM] as the compound, how does the MIC read?
A: > 32 µg/mL

The compounds below were run on Pseudomonas aeruginosa (assay: Antimicrobial activity against Pseudomonas aeruginosa isolate 17112 from fibrosis patient by Etest). Details: not given.
Assay type: functional

Q: Which MIC does the source give for `C[C@@H](O)[C@H]1C(=O)N2C(C(=O)O)=C(S[C@@H]3CN[C@H](C(=O)N(C)C)C3)[C@H](C)[C@H]12` [MEROPENEM] here?
A: > 32 µg/mL

These compounds were tested on Pseudomonas aeruginosa (assay: Antimicrobial activity against Pseudomonas aeruginosa isolate 14169c from fibrosis patient by Etest). Details: not given.
Assay type: functional

Q: `C[C@@H](O)[C@H]1C(=O)N2C(C(=O)O)=C(S[C@@H]3CN[C@H](C(=O)N(C)C)C3)[C@H](C)[C@H]12` [MEROPENEM] was tested. Which MIC did it give?
A: 4 µg/mL (≈ 10.4 µM)

Each compound was assayed on Pseudomonas aeruginosa (assay: Antimicrobial activity against Pseudomonas aeruginosa isolate 1352c from fibrosis patient by Etest). Details: not given.
Assay type: functional

Q: For `C[C@@H](O)[C@H]1C(=O)N2C(C(=O)O)=C(S[C@@H]3CN[C@H](C(=O)N(C)C)C3)[C@H](C)[C@H]12` [MEROPENEM], which MIC is on record?
A: 16 µg/mL (≈ 41.7 µM)

These compounds were tested on Pseudomonas aeruginosa (assay: Antimicrobial activity against Pseudomonas aeruginosa R70 Etest). Details: not given.
Assay type: functional

Q: Which MIC does the source give for `C[C@@H](O)[C@H]1C(=O)N2C(C(=O)O)=C(S[C@@H]3CN[C@H](C(=O)N(C)C)C3)[C@H](C)[C@H]12` [MEROPENEM] here?
A: > 32 µg/mL

These compounds were tested on Pseudomonas aeruginosa (assay: Antimicrobial activity against Pseudomonas aeruginosa isolate 17145c from fibrosis patient by Etest). Details: not given.
Assay type: functional

Q: `C[C@@H](O)[C@H]1C(=O)N2C(C(=O)O)=C(S[C@@H]3CN[C@H](C(=O)N(C)C)C3)[C@H](C)[C@H]12` [MEROPENEM] was tested. Which MIC did it give?
A: 4 µg/mL (≈ 10.4 µM)

What follows are compounds tested on Pseudomonas aeruginosa (assay: Antimicrobial activity against Pseudomonas aeruginosa isolate 16008 from fibrosis patient by Etest). Details: not given.
Assay type: functional

Q: With `C[C@@H](O)[C@H]1C(=O)N2C(C(=O)O)=C(S[C@@H]3CN[C@H](C(=O)N(C)C)C3)[C@H](C)[C@H]12` [MEROPENEM] as the compound, how does the MIC read?
A: 4 µg/mL (≈ 10.4 µM)

Each compound was assayed on Pseudomonas aeruginosa (assay: Antimicrobial activity against Pseudomonas aeruginosa isolate 12102 from fibrosis patient by Etest). Details: not given.
Assay type: functional

Q: How did the MIC turn out when `C[C@@H](O)[C@H]1C(=O)N2C(C(=O)O)=C(S[C@@H]3CN[C@H](C(=O)N(C)C)C3)[C@H](C)[C@H]12` [MEROPENEM] was run?
A: 16 µg/mL (≈ 41.7 µM)

The compounds below were run on Pseudomonas aeruginosa (assay: Antimicrobial activity against Pseudomonas aeruginosa isolate 1726 from fibrosis patient by Etest). Details: not given.
Assay type: functional

Q: With `C[C@@H](O)[C@H]1C(=O)N2C(C(=O)O)=C(S[C@@H]3CN[C@H](C(=O)N(C)C)C3)[C@H](C)[C@H]12` [MEROPENEM] as the compound, how does the MIC read?
A: 0.12 µg/mL (≈ 0.313 µM)

Each compound was assayed on Pseudomonas aeruginosa (assay: Antimicrobial activity against Pseudomonas aeruginosa R20 Etest). Details: not given.
Assay type: functional

Q: For `C[C@@H](O)[C@H]1C(=O)N2C(C(=O)O)=C(S[C@@H]3CN[C@H](C(=O)N(C)C)C3)[C@H](C)[C@H]12` [MEROPENEM], which MIC is on record?
A: 0.5 µg/mL (≈ 1.3 µM)

What follows are compounds tested on Pseudomonas aeruginosa (assay: Antimicrobial activity against Pseudomonas aeruginosa 1405-con D2 by Etest). Details: not given.
Assay type: functional

Q: For `C[C@@H](O)[C@H]1C(=O)N2C(C(=O)O)=C(S[C@@H]3CN[C@H](C(=O)N(C)C)C3)[C@H](C)[C@H]12` [MEROPENEM], which MIC is on record?
A: 8 µg/mL (≈ 20.9 µM)

Each compound was assayed on Pseudomonas aeruginosa (assay: Antimicrobial activity against Pseudomonas aeruginosa isolate 1712c from fibrosis patient by Etest). Details: not given.
Assay type: functional

Q: `C[C@@H](O)[C@H]1C(=O)N2C(C(=O)O)=C(S[C@@H]3CN[C@H](C(=O)N(C)C)C3)[C@H](C)[C@H]12` [MEROPENEM] was tested. Which MIC did it give?
A: 32 µg/mL (≈ 83.4 µM)

The compounds below were run on Pseudomonas aeruginosa (assay: microbe, parasite or virus in culture). Details: isolate 13120.
Description: Antimicrobial activity against Pseudomonas aeruginosa isolate 13120 from fibrosis patient by Etest

Q: For `C[C@@H](O)[C@H]1C(=O)N2C(C(=O)O)=C(S[C@@H]3CN[C@H](C(=O)N(C)C)C3)[C@H](C)[C@H]12` [MEROPENEM], which MIC is on record?
A: 32 µg/mL (≈ 83.4 µM)

The compounds below were run on Pseudomonas aeruginosa (assay: Antimicrobial activity against Pseudomonas aeruginosa isolate 1248c from fibrosis patient by Etest). Details: not given.
Assay type: functional

Q: `C[C@@H](O)[C@H]1C(=O)N2C(C(=O)O)=C(S[C@@H]3CN[C@H](C(=O)N(C)C)C3)[C@H](C)[C@H]12` [MEROPENEM] was tested. Which MIC did it give?
A: 16 µg/mL (≈ 41.7 µM)

What follows are compounds tested on Pseudomonas aeruginosa (assay: Antimicrobial activity against Pseudomonas aeruginosa isolate 3149 from fibrosis patient by Etest). Details: not given.
Assay type: functional

Q: Which MIC does the source give for `C[C@@H](O)[C@H]1C(=O)N2C(C(=O)O)=C(S[C@@H]3CN[C@H](C(=O)N(C)C)C3)[C@H](C)[C@H]12` [MEROPENEM] here?
A: 8 µg/mL (≈ 20.9 µM)

These compounds were tested on Pseudomonas aeruginosa (assay: microbe, parasite or virus in culture). Details: 2779-con.
Description: Antimicrobial activity against Pseudomonas aeruginosa 2779-con by Etest

Q: How did the MIC turn out when `C[C@@H](O)[C@H]1C(=O)N2C(C(=O)O)=C(S[C@@H]3CN[C@H](C(=O)N(C)C)C3)[C@H](C)[C@H]12` [MEROPENEM] was run?
A: 1 µg/mL (≈ 2.61 µM)

Each compound was assayed on Pseudomonas aeruginosa (assay: Antimicrobial activity against Pseudomonas aeruginosa isolate 1240 from fibrosis patient by Etest). Details: not given.
Assay type: functional

Q: `C[C@@H](O)[C@H]1C(=O)N2C(C(=O)O)=C(S[C@@H]3CN[C@H](C(=O)N(C)C)C3)[C@H](C)[C@H]12` [MEROPENEM] was tested. Which MIC did it give?
A: 8 µg/mL (≈ 20.9 µM)

Each compound was assayed on Pseudomonas aeruginosa (assay: Antimicrobial activity against Pseudomonas aeruginosa isolate 12142c from fibrosis patient by Etest). Details: not given.
Assay type: functional

Q: For `C[C@@H](O)[C@H]1C(=O)N2C(C(=O)O)=C(S[C@@H]3CN[C@H](C(=O)N(C)C)C3)[C@H](C)[C@H]12` [MEROPENEM], which MIC is on record?
A: 32 µg/mL (≈ 83.4 µM)

The compounds below were run on Pseudomonas aeruginosa (assay: Antimicrobial activity against Pseudomonas aeruginosa isolate 1495c from fibrosis patient by Etest). Details: not given.
Assay type: functional

Q: `C[C@@H](O)[C@H]1C(=O)N2C(C(=O)O)=C(S[C@@H]3CN[C@H](C(=O)N(C)C)C3)[C@H](C)[C@H]12` [MEROPENEM] was tested. Which MIC did it give?
A: > 32 µg/mL

The compounds below were run on Pseudomonas aeruginosa (assay: Antimicrobial activity against Pseudomonas aeruginosa Z799/61 by Etest). Details: not given.
Assay type: functional

Q: For `C[C@@H](O)[C@H]1C(=O)N2C(C(=O)O)=C(S[C@@H]3CN[C@H](C(=O)N(C)C)C3)[C@H](C)[C@H]12` [MEROPENEM], which MIC is on record?
A: ≤ 0.06 µg/mL

The compounds below were run on Pseudomonas aeruginosa (assay: Antimicrobial activity against Pseudomonas aeruginosa isolate 1333c from fibrosis patient by Etest). Details: not given.
Assay type: functional

Q: Which MIC does the source give for `C[C@@H](O)[C@H]1C(=O)N2C(C(=O)O)=C(S[C@@H]3CN[C@H](C(=O)N(C)C)C3)[C@H](C)[C@H]12` [MEROPENEM] here?
A: 16 µg/mL (≈ 41.7 µM)

What follows are compounds tested on Pseudomonas aeruginosa (assay: Antimicrobial activity against Pseudomonas aeruginosa M1251 by Etest). Details: not given.

Q: How did the MIC turn out when `C[C@@H](O)[C@H]1C(=O)N2C(C(=O)O)=C(S[C@@H]3CN[C@H](C(=O)N(C)C)C3)[C@H](C)[C@H]12` [MEROPENEM] was run?
A: 8 µg/mL (≈ 20.9 µM)

Each compound was assayed on Pseudomonas aeruginosa (assay: Antimicrobial activity against Pseudomonas aeruginosa AHP Etest). Details: not given.
Assay type: functional

Q: Which MIC does the source give for `C[C@@H](O)[C@H]1C(=O)N2C(C(=O)O)=C(S[C@@H]3CN[C@H](C(=O)N(C)C)C3)[C@H](C)[C@H]12` [MEROPENEM] here?
A: 0.25 µg/mL (≈ 0.652 µM)

Each compound was assayed on Pseudomonas aeruginosa (assay: Antimicrobial activity against Pseudomonas aeruginosa isolate 15110c from fibrosis patient by Etest). Details: not given.
Assay type: functional

Q: `C[C@@H](O)[C@H]1C(=O)N2C(C(=O)O)=C(S[C@@H]3CN[C@H](C(=O)N(C)C)C3)[C@H](C)[C@H]12` [MEROPENEM] was tested. Which MIC did it give?
A: 16 µg/mL (≈ 41.7 µM)

These compounds were tested on Pseudomonas aeruginosa (assay: Antimicrobial activity against Pseudomonas aeruginosa isolate 1253 from fibrosis patient by Etest). Details: not given.
Assay type: functional

Q: How did the MIC turn out when `C[C@@H](O)[C@H]1C(=O)N2C(C(=O)O)=C(S[C@@H]3CN[C@H](C(=O)N(C)C)C3)[C@H](C)[C@H]12` [MEROPENEM] was run?
A: 32 µg/mL (≈ 83.4 µM)

What follows are compounds tested on Pseudomonas aeruginosa (assay: Antimicrobial activity against Pseudomonas aeruginosa isolate 1529c from fibrosis patient by Etest). Details: not given.
Assay type: functional

Q: With `C[C@@H](O)[C@H]1C(=O)N2C(C(=O)O)=C(S[C@@H]3CN[C@H](C(=O)N(C)C)C3)[C@H](C)[C@H]12` [MEROPENEM] as the compound, how does the MIC read?
A: 4 µg/mL (≈ 10.4 µM)

The compounds below were run on Pseudomonas aeruginosa (assay: Antimicrobial activity against Pseudomonas aeruginosa isolate 1530c from fibrosis patient by Etest). Details: not given.
Assay type: functional

Q: How did the MIC turn out when `C[C@@H](O)[C@H]1C(=O)N2C(C(=O)O)=C(S[C@@H]3CN[C@H](C(=O)N(C)C)C3)[C@H](C)[C@H]12` [MEROPENEM] was run?
A: 0.5 µg/mL (≈ 1.3 µM)

What follows are compounds tested on Pseudomonas aeruginosa (assay: Antimicrobial activity against Pseudomonas aeruginosa isolate 1247c from fibrosis patient by Etest). Details: not given.
Assay type: functional

Q: Which MIC does the source give for `C[C@@H](O)[C@H]1C(=O)N2C(C(=O)O)=C(S[C@@H]3CN[C@H](C(=O)N(C)C)C3)[C@H](C)[C@H]12` [MEROPENEM] here?
A: 4 µg/mL (≈ 10.4 µM)

Each compound was assayed on Pseudomonas aeruginosa (assay: Antimicrobial activity against Pseudomonas aeruginosa isolate 13167 from fibrosis patient by Etest). Details: not given.
Assay type: functional

Q: For `C[C@@H](O)[C@H]1C(=O)N2C(C(=O)O)=C(S[C@@H]3CN[C@H](C(=O)N(C)C)C3)[C@H](C)[C@H]12` [MEROPENEM], which MIC is on record?
A: 4 µg/mL (≈ 10.4 µM)

These compounds were tested on Pseudomonas aeruginosa (assay: Antimicrobial activity against Pseudomonas aeruginosa isolate 1693c from fibrosis patient by Etest). Details: not given.
Assay type: functional

Q: With `C[C@@H](O)[C@H]1C(=O)N2C(C(=O)O)=C(S[C@@H]3CN[C@H](C(=O)N(C)C)C3)[C@H](C)[C@H]12` [MEROPENEM] as the compound, how does the MIC read?
A: 2 µg/mL (≈ 5.22 µM)

These compounds were tested on Pseudomonas aeruginosa (assay: Antimicrobial activity against Pseudomonas aeruginosa isolate 15107 from fibrosis patient by Etest). Details: not given.
Assay type: functional

Q: For `C[C@@H](O)[C@H]1C(=O)N2C(C(=O)O)=C(S[C@@H]3CN[C@H](C(=O)N(C)C)C3)[C@H](C)[C@H]12` [MEROPENEM], which MIC is on record?
A: 2 µg/mL (≈ 5.22 µM)
